Values quoted from earlier work in patent US20230301919A1, “FREEZE DRIED LOW HYGROSCOPICITY ACTIVE POWDER COMPOSITIONS” (PHILIP MORRIS PRODUCTS S.A., priority 2020, published 2023).

Conditions: at 25° C.

- solubility: 69 g/100 ml water
Structure (SMILES): OC[C@H]1O[C@H](O[C@H]2O[C@H](CO)[C@@H](O)[C@H](O)[C@H]2O)[C@H](O)[C@@H](O)[C@@H]1O [trehalose]
